The CheMixHub ionic liquid set
± gives the uncertainty stated by the source.

Assay: xn = mol fraction of the nth substance listed

CCCC[N+]1(C)CCCC1.F[B-](F)(F)F + CC1COC(=O)O1 + CCCC[N+]1(C)CCCC1.O=S(=O)([N-]S(=O)(=O)C(F)(F)F)C(F)(F)F
293.15 K, 100 kPa, x2 = 0.4706, x3 = 0.05882
Conditions | electrical conductivity [S/m] | viscosity [mPa·s]
– | 0.96 ± 0.06 | 7.6 ± 1.2

CC(=O)[O-].CCC[N+]1(C)CCN(C)CC1 + CC#N
Conditions | electrical conductivity [S/m]
298 K, 101 kPa, x2 = 0.791 | 1.76 ± 0.04

CCO + CC(=O)[O-].CC[n+]1ccn(C)c1
101 kPa, x1 = 1
Conditions | viscosity [mPa·s]
318.15 K | 0.755 ± 0.016
338.15 K | 0.543 ± 0.012

CC(=O)[O-].CC[NH2+]CC + CC(C)=O
298.15 K, 101 kPa
Conditions | electrical conductivity [S/m] | viscosity [mPa·s]
x1 = 0.0095 | 0.001 ± 0.001 | –
x1 = 0.0238 | 0.033 ± 0.001 | –
x1 = 0.0523 | 0.085 ± 0.003 | –
x1 = 0.0729 | 0.131 ± 0.004 | –
x1 = 0.098 | – | 0.734 ± 0.044
x1 = 0.0983 | 0.171 ± 0.005 | –
x1 = 0.194 | – | 1.092 ± 0.066
x1 = 0.1981 | 0.328 ± 0.01 | –
x1 = 0.2979 | 0.427 ± 0.013 | –
x1 = 0.299 | – | 2.01 ± 0.12
x1 = 0.401 | 0.479 ± 0.014 | –
x1 = 0.402 | – | 3.5 ± 0.21
x1 = 0.4945 | 0.505 ± 0.015 | –
x1 = 0.5 | – | 5.74 ± 0.35
x1 = 0.599 | – | 8.92 ± 0.55
x1 = 0.6022 | 0.459 ± 0.014 | –
x1 = 0.701 | – | 14.91 ± 0.92
x1 = 0.7021 | 0.427 ± 0.013 | –
x1 = 0.7971 | 0.387 ± 0.012 | –
x1 = 0.802 | – | 24.3 ± 1.5
x1 = 0.9002 | 0.341 ± 0.01 | –
x1 = 0.903 | – | 38.6 ± 2.4
x2 = 0.003 | – | 58.7 ± 3.8

CCCCCCCCCCCCCC[n+]1ccccc1.O=C([O-])C(O)c1ccccc1 + CC(C)C[C@H](N)C(=O)O + O
electrical conductivity [S/m], 101 kPa
Conditions | 293.15 K | 298.15 K | 303.15 K | 308.15 K | 313.15 K
x1 = 4.89e-06, x2 = 0.0009002 | 0.00294 ± 0.00079 | 0.00331 ± 0.00088 | 0.00369 ± 0.00098 | 0.0041 ± 0.0011 | 0.0045 ± 0.0012
x1 = 5.65e-06, x2 = 0.001799 | 0.00333 ± 0.0007 | 0.00365 ± 0.00077 | 0.004 ± 0.00084 | 0.00436 ± 0.00095 | 0.0047 ± 0.001
x1 = 6.85e-06, x2 = 0 | 0.00248 ± 0.00074 | 0.00278 ± 0.00083 | 0.00309 ± 0.00092 | 0.0034 ± 0.001 | 0.0037 ± 0.0011
x1 = 1.069e-05, x2 = 0.0009002 | 0.00459 ± 0.00073 | 0.0052 ± 0.00081 | 0.00582 ± 0.00091 | 0.0064 ± 0.001 | 0.0071 ± 0.0011
x1 = 1.13e-05, x2 = 0.001799 | 0.00474 ± 0.00073 | 0.00522 ± 0.00082 | 0.00572 ± 0.00089 | 0.0065 ± 0.001 | 0.0071 ± 0.0011
x1 = 1.424e-05, x2 = 0 | 0.00472 ± 0.00079 | 0.00529 ± 0.00089 | 0.00587 ± 0.00099 | 0.0065 ± 0.0011 | 0.0071 ± 0.0012
x1 = 1.54e-05, x2 = 0.0009002 | 0.0059 ± 0.00085 | 0.00666 ± 0.00096 | 0.0074 ± 0.001 | 0.0083 ± 0.0012 | 0.0091 ± 0.0013
x1 = 1.695e-05, x2 = 0.001799 | 0.00622 ± 0.00087 | 0.00689 ± 0.00097 | 0.0075 ± 0.0011 | 0.0086 ± 0.0012 | 0.0093 ± 0.0013
x1 = 2.084e-05, x2 = 0.0009002 | 0.00743 ± 0.00094 | 0.0084 ± 0.0011 | 0.0093 ± 0.0012 | 0.0104 ± 0.0013 | 0.0114 ± 0.0014
x1 = 2.126e-05, x2 = 0 | 0.00671 ± 0.0009 | 0.0076 ± 0.001 | 0.0084 ± 0.0011 | 0.0093 ± 0.0013 | 0.0101 ± 0.0014
x1 = 2.205e-05, x2 = 0.001799 | 0.0077 ± 0.00098 | 0.0086 ± 0.0011 | 0.0094 ± 0.0012 | 0.0106 ± 0.0013 | 0.0116 ± 0.0015
x1 = 2.519e-05, x2 = 0.0009002 | 0.0086 ± 0.001 | 0.0097 ± 0.0011 | 0.0107 ± 0.0013 | 0.012 ± 0.0014 | 0.0132 ± 0.0015
x1 = 2.733e-05, x2 = 0.001799 | 0.0091 ± 0.0011 | 0.0102 ± 0.0012 | 0.0111 ± 0.0013 | 0.0125 ± 0.0015 | 0.0137 ± 0.0016
x1 = 2.811e-05, x2 = 0 | 0.0086 ± 0.001 | 0.0097 ± 0.0012 | 0.0108 ± 0.0013 | 0.0122 ± 0.0015 | 0.0131 ± 0.0016
x1 = 2.972e-05, x2 = 0.0009002 | 0.0098 ± 0.0011 | 0.0111 ± 0.0013 | 0.0124 ± 0.0015 | 0.0138 ± 0.0016 | 0.0152 ± 0.0018
x1 = 3.28e-05, x2 = 0.001799 | 0.0103 ± 0.0011 | 0.0116 ± 0.0013 | 0.0129 ± 0.0014 | 0.0144 ± 0.0016 | 0.0158 ± 0.0018
x1 = 3.46e-05, x2 = 0 | 0.0103 ± 0.0011 | 0.0116 ± 0.0013 | 0.0129 ± 0.0014 | 0.0145 ± 0.0016 | 0.0157 ± 0.0018
x1 = 3.552e-05, x2 = 0.0009002 | 0.0112 ± 0.0012 | 0.0126 ± 0.0014 | 0.0141 ± 0.0015 | 0.0157 ± 0.0017 | 0.0174 ± 0.0019
x1 = 3.863e-05, x2 = 0.001799 | 0.0115 ± 0.0012 | 0.0129 ± 0.0014 | 0.0144 ± 0.0015 | 0.016 ± 0.0017 | 0.0177 ± 0.0019
x1 = 4.108e-05, x2 = 0 | 0.0117 ± 0.0012 | 0.0131 ± 0.0014 | 0.0146 ± 0.0015 | 0.0161 ± 0.0017 | 0.0179 ± 0.0019
x1 = 4.186e-05, x2 = 0.0009001 | 0.0124 ± 0.0013 | 0.014 ± 0.0015 | 0.0157 ± 0.0016 | 0.0175 ± 0.0018 | 0.0194 ± 0.002
x1 = 4.41e-05, x2 = 0.001799 | 0.0124 ± 0.0013 | 0.0138 ± 0.0014 | 0.0155 ± 0.0016 | 0.0172 ± 0.0018 | 0.0191 ± 0.002
x1 = 4.811e-05, x2 = 0 | 0.0129 ± 0.0013 | 0.0144 ± 0.0015 | 0.0161 ± 0.0017 | 0.0179 ± 0.0019 | 0.0198 ± 0.0021
x1 = 4.838e-05, x2 = 0.0009001 | 0.0134 ± 0.0014 | 0.0151 ± 0.0015 | 0.017 ± 0.0017 | 0.0189 ± 0.0019 | 0.0211 ± 0.0022
x1 = 5.139e-05, x2 = 0.001799 | 0.0135 ± 0.0014 | 0.0152 ± 0.0016 | 0.0168 ± 0.0017 | 0.019 ± 0.002 | 0.021 ± 0.0022
x1 = 5.388e-05, x2 = 0 | 0.0137 ± 0.0014 | 0.0154 ± 0.0016 | 0.0172 ± 0.0018 | 0.0191 ± 0.002 | 0.0211 ± 0.0022
x1 = 5.509e-05, x2 = 0.0009001 | 0.0144 ± 0.0015 | 0.0162 ± 0.0016 | 0.018 ± 0.0018 | 0.0203 ± 0.0021 | 0.0225 ± 0.0023
x1 = 5.868e-05, x2 = 0.001799 | 0.0146 ± 0.0015 | 0.0162 ± 0.0016 | 0.018 ± 0.0018 | 0.0203 ± 0.0021 | 0.0225 ± 0.0023
x1 = 5.982e-05, x2 = 0 | 0.0145 ± 0.0015 | 0.0163 ± 0.0017 | 0.0182 ± 0.0019 | 0.0202 ± 0.0021 | 0.0224 ± 0.0023
x1 = 6.179e-05, x2 = 0.0009001 | 0.0152 ± 0.0016 | 0.0172 ± 0.0018 | 0.0192 ± 0.002 | 0.0215 ± 0.0022 | 0.0239 ± 0.0024
x1 = 6.559e-05, x2 = 0 | 0.0153 ± 0.0016 | 0.0172 ± 0.0018 | 0.0192 ± 0.0019 | 0.0213 ± 0.0022 | 0.0236 ± 0.0024
x1 = 6.56e-05, x2 = 0.001799 | 0.0153 ± 0.0015 | 0.0171 ± 0.0017 | 0.0192 ± 0.002 | 0.0216 ± 0.0022 | 0.0239 ± 0.0024
x1 = 6.813e-05, x2 = 0.0009001 | 0.0161 ± 0.0016 | 0.0181 ± 0.0019 | 0.0203 ± 0.0021 | 0.0227 ± 0.0023 | 0.0252 ± 0.0026
x1 = 7.081e-05, x2 = 0 | 0.016 ± 0.0016 | 0.018 ± 0.0018 | 0.02 ± 0.002 | 0.0223 ± 0.0023 | 0.0246 ± 0.0025
x1 = 7.216e-05, x2 = 0.001799 | 0.0161 ± 0.0016 | 0.0181 ± 0.0018 | 0.0203 ± 0.0021 | 0.0227 ± 0.0023 | 0.0252 ± 0.0026
x1 = 7.484e-05, x2 = 0.0009001 | 0.0169 ± 0.0017 | 0.0191 ± 0.0019 | 0.0214 ± 0.0022 | 0.0239 ± 0.0024 | 0.0266 ± 0.0027
x1 = 7.604e-05, x2 = 0 | 0.0167 ± 0.0017 | 0.0187 ± 0.0019 | 0.0209 ± 0.0021 | 0.0232 ± 0.0024 | 0.0258 ± 0.0026
x1 = 7.908e-05, x2 = 0.001799 | 0.0169 ± 0.0017 | 0.019 ± 0.0019 | 0.0214 ± 0.0022 | 0.0238 ± 0.0024 | 0.0265 ± 0.0027
x1 = 8.072e-05, x2 = 0 | 0.0173 ± 0.0018 | 0.0194 ± 0.002 | 0.0217 ± 0.0022 | 0.0241 ± 0.0024 | 0.0266 ± 0.0027
